{"source": "the supplement of paper PMC10307832", "experiment_in_all_cases": "relative viability (nuclei count vs DMSO), 5 days (fraction); higher = more cells survive", "key": {"[1]": {"system": "NCI-H650", "in_short": "(§1)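 Lung cancer cell lines, seeded in 1536-well plates, were treated the following day by pin tool with a single drug or with five library-drug doses (not always all listed) in √10 steps on top of a fixed anchor-drug dose. Cells were fixed and nuclei stained in one step after 5 days, and nuclei were counted. Relative viability is the nuclei count for treated wells divided by that for vehicle wells, reported as medians of duplicate plates.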"}, "[2]": {"system": "SW 1573", "in_short": "as §1"}, "[3]": {"system": "NCI-H2023", "in_short": "as §1"}, "[4]": {"system": "NCI-H1993", "in_short": "as §1"}, "[5]": {"system": "NCI-H1915", "in_short": "as §1"}, "[6]": {"system": "NCI-H838", "in_short": "as §1"}, "[7]": {"system": "PC-14", "in_short": "as §1"}, "[8]": {"system": "NCI-H2126", "in_short": "as §1"}, "[9]": {"system": "EPLC-272H", "in_short": "as §1"}, "[10]": {"system": "HCC-15", "in_short": "as §1"}, "[11]": {"system": "HOP-62", "in_short": "as §1"}, "[12]": {"system": "UMC-11", "in_short": "as §1"}, "[13]": {"system": "LC-2-ad", "in_short": "as §1"}, "[14]": {"system": "NCI-H2085", "in_short": "as §1"}, "[15]": {"system": "LU99A", "in_short": "as §1"}, "[16]": {"system": "HARA", "in_short": "as §1"}, "[17]": {"system": "NCI-H2347", "in_short": "as §1"}, "[18]": {"system": "HCC-44", "in_short": "as §1"}, "[19]": {"system": "COR-L23", "in_short": "as §1"}, "[20]": {"system": "NCI-H1355", "in_short": "as §1"}, "[21]": {"system": "NCI-H1651", "in_short": "as §1"}}, "data": [{"smiles": "Cc1sc2c(c1C)C(c1ccc(Cl)cc1)=N[C@@H](CC(=O)OC(C)(C)C)c1nnc(C)n1-2", "note": "[JQ1] + Nc1nc2[nH]cc(CCc3ccc(C(=O)N[C@@H](CCC(=O)O)C(=O)O)cc3)c2c(=O)[nH]1 [Pemetrexed] (partner 0.2 µM)", "values": [{"measurement": "relative viability", "setting": "[1]; first compound 0.04 µM", "result": 0.886}, {"measurement": "relative viability", "setting": "[1]; first compound 0.1265 µM", "result": 0.664}, {"measurement": "relative viability", "setting": "[1]; first compound 0.4 µM", "result": 0.839}, {"measurement": "relative viability", "setting": "[1]; first compound 1.265 µM", "result": 0.6}, {"measurement": "relative viability", "setting": "[1]; first compound 4 µM", "result": 0.276}, {"measurement": "relative viability", "setting": "[2]; first compound 0.04 µM", "result": 0.826}, {"measurement": "relative viability", "setting": "[2]; first compound 0.1265 µM", "result": 0.789}, {"measurement": "relative viability", "setting": "[2]; first compound 0.4 µM", "result": 0.598}, {"measurement": "relative viability", "setting": "[2]; first compound 1.265 µM", "result": 0.398}, {"measurement": "relative viability", "setting": "[2]; first compound 4 µM", "result": 0.295}, {"measurement": "relative viability", "setting": "[3]; first compound 0.04 µM", "result": 0.231}, {"measurement": "relative viability", "setting": "[3]; first compound 0.1265 µM", "result": 0.195}, {"measurement": "relative viability", "setting": "[3]; first compound 0.4 µM", "result": 0.139}, {"measurement": "relative viability", "setting": "[3]; first compound 1.265 µM", "result": 0.101}, {"measurement": "relative viability", "setting": "[3]; first compound 4 µM", "result": 0.109}, {"measurement": "relative viability", "setting": "[4]; first compound 0.04 µM", "result": 0.592}, {"measurement": "relative viability", "setting": "[4]; first compound 0.1265 µM", "result": 0.649}, {"measurement": "relative viability", "setting": "[4]; first compound 0.4 µM", "result": 0.583}, {"measurement": "relative viability", "setting": "[4]; first compound 1.265 µM", "result": 0.478}, {"measurement": "relative viability", "setting": "[4]; first compound 4 µM", "result": 0.49}, {"measurement": "relative viability", "setting": "[5]; first compound 0.04 µM", "result": 0.46}, {"measurement": "relative viability", "setting": "[5]; first compound 0.4 µM", "result": 0.323}, {"measurement": "relative viability", "setting": "[5]; first compound 1.265 µM", "result": 0.295}, {"measurement": "relative viability", "setting": "[5]; first compound 4 µM", "result": 0.167}, {"measurement": "relative viability", "setting": "[6]; first compound 0.04 µM", "result": 0.24}, {"measurement": "relative viability", "setting": "[6]; first compound 0.1265 µM", "result": 0.167}, {"measurement": "relative viability", "setting": "[6]; first compound 0.4 µM", "result": 0.176}, {"measurement": "relative viability", "setting": "[6]; first compound 1.265 µM", "result": 0.177}, {"measurement": "relative viability", "setting": "[6]; first compound 4 µM", "result": 0.17}, {"measurement": "relative viability", "setting": "[7]; first compound 0.04 µM", "result": 0.12}, {"measurement": "relative viability", "setting": "[7]; first compound 0.1265 µM", "result": 0.148}, {"measurement": "relative viability", "setting": "[7]; first compound 0.4 µM", "result": 0.105}, {"measurement": "relative viability", "setting": "[7]; first compound 1.265 µM", "result": 0.136}, {"measurement": "relative viability", "setting": "[7]; first compound 4 µM", "result": 0.133}, {"measurement": "relative viability", "setting": "[8]; first compound 0.04 µM", "result": 0.71}, {"measurement": "relative viability", "setting": "[8]; first compound 0.1265 µM", "result": 0.721}, {"measurement": "relative viability", "setting": "[8]; first compound 0.4 µM", "result": 0.624}, {"measurement": "relative viability", "setting": "[8]; first compound 1.265 µM", "result": 0.519}, {"measurement": "relative viability", "setting": "[8]; first compound 4 µM", "result": 0.413}, {"measurement": "relative viability", "setting": "[9]; first compound 0.04 µM", "result": 0.309}, {"measurement": "relative viability", "setting": "[9]; first compound 0.1265 µM", "result": 0.336}, {"measurement": "relative viability", "setting": "[9]; first compound 0.4 µM", "result": 0.29}, {"measurement": "relative viability", "setting": "[9]; first compound 1.265 µM", "result": 0.298}, {"measurement": "relative viability", "setting": "[9]; first compound 4 µM", "result": 0.317}, {"measurement": "relative viability", "setting": "[10]; first compound 0.04 µM", "result": 0.238}, {"measurement": "relative viability", "setting": "[10]; first compound 0.1265 µM", "result": 0.224}, {"measurement": "relative viability", "setting": "[10]; first compound 0.4 µM", "result": 0.19}, {"measurement": "relative viability", "setting": "[10]; first compound 1.265 µM", "result": 0.182}, {"measurement": "relative viability", "setting": "[10]; first compound 4 µM", "result": 0.199}, {"measurement": "relative viability", "setting": "[11]; first compound 0.04 µM", "result": 0.271}, {"measurement": "relative viability", "setting": "[11]; first compound 0.1265 µM", "result": 0.266}, {"measurement": "relative viability", "setting": "[11]; first compound 0.4 µM", "result": 0.26}, {"measurement": "relative viability", "setting": "[11]; first compound 1.265 µM", "result": 0.137}, {"measurement": "relative viability", "setting": "[11]; first compound 4 µM", "result": 0.106}, {"measurement": "relative viability", "setting": "[12]; first compound 0.04 µM", "result": 0.73}, {"measurement": "relative viability", "setting": "[12]; first compound 0.1265 µM", "result": 0.584}, {"measurement": "relative viability", "setting": "[12]; first compound 0.4 µM", "result": 0.352}, {"measurement": "relative viability", "setting": "[12]; first compound 1.265 µM", "result": 0.254}, {"measurement": "relative viability", "setting": "[12]; first compound 4 µM", "result": 0.193}, {"measurement": "relative viability", "setting": "[13]; first compound 0.04 µM", "result": 0.268}, {"measurement": "relative viability", "setting": "[13]; first compound 0.1265 µM", "result": 0.258}, {"measurement": "relative viability", "setting": "[13]; first compound 0.4 µM", "result": 0.244}, {"measurement": "relative viability", "setting": "[13]; first compound 1.265 µM", "result": 0.256}, {"measurement": "relative viability", "setting": "[13]; first compound 4 µM", "result": 0.209}, {"measurement": "relative viability", "setting": "[14]; first compound 0.04 µM", "result": 0.738}, {"measurement": "relative viability", "setting": "[14]; first compound 0.1265 µM", "result": 0.721}, {"measurement": "relative viability", "setting": "[14]; first compound 0.4 µM", "result": 0.668}, {"measurement": "relative viability", "setting": "[14]; first compound 1.265 µM", "result": 0.403}, {"measurement": "relative viability", "setting": "[14]; first compound 4 µM", "result": 0.374}, {"measurement": "relative viability", "setting": "[15]; first compound 0.04 µM", "result": 0.173}, {"measurement": "relative viability", "setting": "[15]; first compound 0.4 µM", "result": 0.167}, {"measurement": "relative viability", "setting": "[15]; first compound 1.265 µM", "result": 0.15}, {"measurement": "relative viability", "setting": "[15]; first compound 4 µM", "result": 0.153}, {"measurement": "relative viability", "setting": "[16]; first compound 0.04 µM", "result": 0.249}, {"measurement": "relative viability", "setting": "[16]; first compound 0.1265 µM", "result": 0.271}, {"measurement": "relative viability", "setting": "[16]; first compound 0.4 µM", "result": 0.235}, {"measurement": "relative viability", "setting": "[16]; first compound 1.265 µM", "result": 0.217}, {"measurement": "relative viability", "setting": "[16]; first compound 4 µM", "result": 0.185}, {"measurement": "relative viability", "setting": "[17]; first compound 0.04 µM", "result": 0.468}, {"measurement": "relative viability", "setting": "[17]; first compound 0.1265 µM", "result": 0.423}, {"measurement": "relative viability", "setting": "[17]; first compound 0.4 µM", "result": 0.403}, {"measurement": "relative viability", "setting": "[17]; first compound 1.265 µM", "result": 0.405}, {"measurement": "relative viability", "setting": "[17]; first compound 4 µM", "result": 0.357}, {"measurement": "relative viability", "setting": "[18]; first compound 0.04 µM", "result": 0.59}, {"measurement": "relative viability", "setting": "[18]; first compound 0.1265 µM", "result": 0.617}, {"measurement": "relative viability", "setting": "[18]; first compound 0.4 µM", "result": 0.692}, {"measurement": "relative viability", "setting": "[18]; first compound 1.265 µM", "result": 0.58}, {"measurement": "relative viability", "setting": "[18]; first compound 4 µM", "result": 0.444}, {"measurement": "relative viability", "setting": "[19]; first compound 0.04 µM", "result": 0.21}, {"measurement": "relative viability", "setting": "[19]; first compound 0.1265 µM", "result": 0.214}, {"measurement": "relative viability", "setting": "[19]; first compound 0.4 µM", "result": 0.196}, {"measurement": "relative viability", "setting": "[19]; first compound 1.265 µM", "result": 0.159}, {"measurement": "relative viability", "setting": "[19]; first compound 4 µM", "result": 0.147}, {"measurement": "relative viability", "setting": "[20]; first compound 0.04 µM", "result": 1.05}, {"measurement": "relative viability", "setting": "[20]; first compound 0.1265 µM", "result": 1.04}, {"measurement": "relative viability", "setting": "[20]; first compound 0.4 µM", "result": 1.07}, {"measurement": "relative viability", "setting": "[20]; first compound 1.265 µM", "result": 0.893}, {"measurement": "relative viability", "setting": "[20]; first compound 4 µM", "result": 0.718}, {"measurement": "relative viability", "setting": "[21]; first compound 0.04 µM", "result": 0.589}, {"measurement": "relative viability", "setting": "[21]; first compound 0.1265 µM", "result": 0.45}, {"measurement": "relative viability", "setting": "[21]; first compound 0.4 µM", "result": 0.391}, {"measurement": "relative viability", "setting": "[21]; first compound 1.265 µM", "result": 0.458}, {"measurement": "relative viability", "setting": "[21]; first compound 4 µM", "result": 0.358}]}]}
